The values that follow come from patent US20240132450A1, “MODULATORS OF G PROTEIN-COUPLED RECEPTOR 88” (ACADIA Pharmaceuticals Inc., priority 2020, published 2024).

Data set [1] is described as follows: Hepatocyte stability (mouse). The following applies: test compound 3 μM, 60 min; for hepatocyte CLint at 3 μM: mouse, cryopreserved pooled hepatocytes in suspension, read-out: Mouse heps Clint. The format is in vitro ADME. How it is done: (iii) Hepatocyte Stability (Human, Mouse, Rat or Dog)
Test compound (3 μM) is incubated with cryopreserved hepatocytes in suspension. Samples are removed at 6 time points over the course of a 60 min experiment and test compound is analysed by LC-MS/MS. An intrinsic clearance value (CLint) with standard error and half-life (t %) are calculated. Cryopreserved pooled hepatocytes are stored in liquid nitrogen prior to use. […] The final incubation volume is 500 μL. A control incubation is included for each compound tested where lysed cells are added instead of viable cells. Two control compounds are included with each species.
The reactions are stopped by transferring 50 μL of incubate to 100 μL methanol containing internal standard at the appropriate time points. The control (lysed cells) is incubated for 60 min only. The termination plates are centrifuged at 2500 rpm at 4° C. for 30 min to precipitate the protein. Following protein precipitation, the sample supernatants are combined in cassettes of up to 4 compounds and analysed using generic LC-MS/MS conditions. From a plot of In peak area ratio (compound peak area/internal standard peak area) against time, the gradient of the line is determined. Subsequently, half-life (t %) and intrinsic clearance (CLint) are calculated using the equations below: […]

Data set [2] addresses hGPR88 receptor (Homo sapiens, UniProt Q9GZN0). Briefly: hGPR88-HEK cAMP accumulation assay. Particulars: GRP88 agonist activity (EC50), HEK-293 cells expressing human recombinant GPR88, forskolin 200 nM, High/Medium/Low bands. (In general: Cyclic AMP is a second messenger, typically raised through Gs and lowered through Gi signalling.)

One may read the pEC50 as the negative decadic logarithm of the EC50, by convention in mol/L.

pEC50: −log10 of the molar value.

hGPR88 receptor, sequence (Q9GZN0 whole entry): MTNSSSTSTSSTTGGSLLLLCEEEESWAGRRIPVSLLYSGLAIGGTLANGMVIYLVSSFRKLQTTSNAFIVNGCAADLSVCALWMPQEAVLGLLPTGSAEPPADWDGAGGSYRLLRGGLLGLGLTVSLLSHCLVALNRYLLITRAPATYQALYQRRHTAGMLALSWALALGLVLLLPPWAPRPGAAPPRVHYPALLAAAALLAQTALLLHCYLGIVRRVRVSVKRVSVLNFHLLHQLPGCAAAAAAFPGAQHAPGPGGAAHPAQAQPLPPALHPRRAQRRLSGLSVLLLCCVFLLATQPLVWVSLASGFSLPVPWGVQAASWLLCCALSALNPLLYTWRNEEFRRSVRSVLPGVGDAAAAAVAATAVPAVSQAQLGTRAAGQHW

As for `CCOc1ccc(-c2ccc(NC(=O)C3CC3c3ccccn3)cc2)cn1` (racemic) [Example 36, (rac-trans)-N-(4-(6-ethoxypyridin-3-yl)phenyl)-2-(pyridin-2-yl)cyclopropane-1-carboxamide], the “Mouse heps Clint” value in data set [1] (mouse cryopreserved hepatocytes) is 80 μL/min/10^6 cells. Moreover, the pEC50 in data set [2] is 5.30 to 6.00.

On to `CC(C)(Oc1ccc(F)cc1)C(=O)Nc1ccc(-c2ccc(CN3CCOCC3)cc2)cc1` [Example 25, 2-(4-fluorophenoxy)-2-methyl-N-(4′-(morpholinomethyl)-[1,1′-biphenyl]-4-yl)propenamide], for which the hepatocyte CLint at 3 μM in data set [1] stood at 41 µL/min/1e6 cells. Moreover, the pEC50 in data set [2] is > 6.00.

For `CCCc1ccc(C23CC(NC(=O)C(C)(C)Oc4ccc(F)cc4)(C2)C3)cc1` [Example 9, 2-(4-fluorophenoxy)-2-methyl-N-(3-(4-propylphenyl)bicyclo[1.1.1]pentan-1-yl)propenamide], the hepatocyte CLint at 3 μM in data set [1] came to 39 µL/min/1e6 cells. For the same compound, the pEC50 in data set [2] is 5.30 to 6.00.

Regarding `CC(C)Oc1ccc(-c2ccc(NC(=O)C(C)(C)Oc3ccc(F)cc3)cc2)cn1` [Example 92, 2-(4-fluorophenoxy)-N-(4-(6-isopropoxypyridin-3-yl)phenyl)-2-methylpropanamide], in data set [1], the hepatocyte CLint at 3 μM was 47 µL/min/1e6 cells. The pEC50 in data set [2] is > 6.00.

Take `COCc1ccc(-c2ccc(NC(=O)C(C)(C)Oc3ccccc3)cc2)cc1` [Example 4, N-(4′-(methoxymethyl)-[1,1′-biphenyl]-4-yl)-2-methyl-2-phenoxypropanamide]: the hepatocyte CLint at 3 μM in data set [1] amounted to 51 µL/min/1e6 cells. For the same compound, the pEC50 in data set [2] is > 6.00.

`CN(C)Cc1ccc(-c2ccc(NC(=O)C(C)(C)Oc3ccc(F)cc3)cc2)cc1` [Example 17, N-(4′-((dimethylamino)methyl)-[1,1′-biphenyl]-4-yl)-2-(4-fluorophenoxy)-2-methylpropanamide]: in data set [1], the hepatocyte CLint at 3 μM is 37 µL/min/1e6 cells. The pEC50 in data set [2] is 5.30 to 6.00.

In the case of `CCCc1ccc(C23CC(NC(=O)C4CC4c4ccccn4)(C2)C3)cc1` (racemic) [Example 34, (rac-trans)-N-(3-(4-propylphenyl)bicyclo[1.1.1]pentan-1-yl)-2-(pyridin-2-yl)cyclopropane-1-carboxamide], the pEC50 in data set [2] is 5.30 to 6.00.

Take `CC(C)(Oc1ccc(F)cc1)C(=O)Nc1ccc(-c2ccc(OC(F)(F)F)cc2)cc1` [Example 12, 2-(4-fluorophenoxy)-2-methyl-N-(4′-(trifluoromethoxy)-[1,1′-biphenyl]-4-yl)propanamide]: the pEC50 in data set [2] was < 5.30.

In the case of `CN(C(=O)C(C)(C)Oc1ccc(F)cc1)c1ccc(-c2ccc(CO)cc2F)cc1` [Example 108], in data set [2], the pEC50 was 5.30 to 6.00.

`CCOc1ccc(-c2ccc(NC(=O)C(C)(C)Oc3ccc(OC)cc3)cc2)cn1` [Example 94, N-(4-(6-ethoxypyridin-3-yl)phenyl)-2-(4-methoxyphenoxy)-2-methylpropanamide]: in data set [2], the pEC50 was 5.30 to 6.00.

With `COC(C)c1ccc(-c2ccc(NC(=O)C(C)(C)Oc3ccc(F)cc3)cc2)cc1` (centres unmarked) [Example 119, 2-(4-fluorophenoxy)-N-(4′-(1-methoxyethyl)-[1,1′-biphenyl]-4-yl)-2-methylpropanamide], the pEC50 in data set [2] is 5.30 to 6.00.

As for `COCc1ccc(-c2ccc(NC(=O)C(C)(C)Oc3ccc(C(F)(F)F)cc3)cc2)cc1` [Example 104, N-(4′-(methoxymethyl)-[1,1′-biphenyl]-4-yl)-2-methyl-2-(4-(trifluoromethyl)phenoxy)propanamide], in data set [2], the pEC50 is 5.30 to 6.00.

For `CC(C)Oc1ccc(-c2ccc(NC(=O)C3CC3c3ccccn3)cc2)cn1` (racemic) [Example 109, (rac-trans)-N-(4-(6-isopropoxypyridin-3-yl)phenyl)-2-(pyridin-2-yl) cyclopropane-1-carboxamide], the pEC50 in data set [2] is 5.30 to 6.00.

`CN(C)C(=O)c1ccc(-c2ccc(NC(=O)C(C)(C)Oc3ccc(F)cc3)cc2)cc1` [Example 16, 4′-(2-(4-fluorophenoxy)-2-methylpropanamido)-N,N-dimethyl-[1,1′-biphenyl]-4-carboxamide]: the pEC50 in data set [2] is < 5.30.

Consider `CCN(C(=O)C(C)(C)Oc1ccc(F)cc1)c1ccc(-c2ccc(COC)cc2)cc1` [Example 14, N-ethyl-2-(4-fluorophenoxy)-N-(4′-(methoxymethyl)-[1,1′-biphenyl]-4-yl)-2-methylpropanamide], for which, in data set [2], the pEC50 was 5.30 to 6.00.

For the compound `Cc1ccc(-c2ccc(N(CC(C)C)C(=O)C(C)(C)Oc3ccc(F)cc3)cc2)cc1` [Example 21, 2-(4-fluorophenoxy)-N-isobutyl-2-methyl-N-(4′-methyl-[1,1′-biphenyl]-4-yl)-2-methylpropanamide], the pEC50 in data set [2] was < 5.30.

Consider `COCc1ccc(C23CC(NC(=O)C4CC4c4ccccn4)(C2)C3)cc1` (racemic) [Example 44, (rac-trans)-N-(3-(4-(methoxymethyl)phenyl)bicyclo[1.1.1]pentan-1-yl)-2-(pyridin-2-yl)cyclopropane-1-carboxamide], for which, in data set [2], the pEC50 is 5.30 to 6.00.

`CC(c1ccc(-c2ccc(NC(=O)C(C)(C)Oc3ccc(F)cc3)cc2)cc1)N1CCOCC1` (centres unmarked) [Example 47, 2-(4-fluorophenoxy)-2-methyl-N-(4′-(1-morpholinoethyl)-[1,1′-biphenyl]-4-yl)propanamide]: the pEC50 in data set [2] was 5.30 to 6.00.

As for `CC(C)(Oc1ccc(F)cc1)C(=O)Nc1ccc(-c2ccc(C(=O)N3CCOCC3)cc2)cc1` [Example 27, 2-(4-fluorophenoxy)-2-methyl-N-(4′-(morpholine-4-carbonyl)-[1,1′-biphenyl]-4-yl)propenamide], in data set [2], the pEC50 was 5.30 to 6.00.

Consider `CCOc1ccc(-c2ccc(NC(=O)C(C)(C)Oc3ccc(C#N)cc3)cc2)cn1` [Example 116, 2-(4-cyanophenoxy)-N-(4-(6-ethoxypyridin-3-yl)phenyl)-2-methylpropanamide], for which the pEC50 in data set [2] was 5.30 to 6.00.

As for `CCOc1ccc(-c2ccc(NC(=O)C(C)(C)Oc3ccccn3)cc2)cn1` [Example 140, N-(4-(6-ethoxypyridin-3-yl)phenyl)-2-methyl-2-(pyridin-2-yloxy)propanamide], the pEC50 in data set [2] was 5.30 to 6.00.

Regarding `COCc1ccc(-c2ccc(NC(=O)C(C)(C)Oc3ccc(F)cn3)cc2)cc1` [Example 138, 2-((5-fluoropyridin-2-yl)oxy)-N-(4′-(methoxymethyl)-[1,1′-biphenyl]-4-yl)-2-methylpropanamide], the pEC50 in data set [2] is 5.30 to 6.00.

With `COCc1ccc(-c2ccc(NC(=O)C(C)(C)Oc3cccc(F)c3)cc2)cc1` [Example 62, 2-(3-fluorophenoxy)-N-(4′-(methoxymethyl)-[1,1′-biphenyl]-4-yl)-2-methylpropanamide], the pEC50 in data set [2] was > 6.00.

Consider `COCc1ccc(-c2ccc(NC(=O)C(C)(C)Oc3ccc(Br)cc3)cc2)cc1` [Example 59, 2-(4-bromophenoxy)-N-(4′-(methoxymethyl)-[1,1′-biphenyl]-4-yl)-2-methylpropanamide], for which the pEC50 in data set [2] is > 6.00.

Take `COCc1ccc(-c2ccc(NC(=O)C3(Oc4ccc(F)cc4)CCC3)cc2)cc1` [Example 127, 1-(4-fluorophenoxy)-N-(4′-(methoxymethyl)-[1,1′-biphenyl]-4-yl)cyclobutane-1-carboxamide]: in data set [2], the pEC50 is > 6.00.

Take `CCCc1ccc(-c2ccc(NC(=O)C(C)(C)Oc3ccc(F)cc3)cc2)cn1` [Example 91, 2-(4-fluorophenoxy)-2-methyl-N-(4-(6-propylpyridin-3-yl)phenyl)propanamide]: in data set [2], the pEC50 was 5.30 to 6.00.
